Assay: solubility in solvents at 25° C.
Assay type: physicochemical
[1] = solvent Toluene, LOD = Limit Of Detection

SMILES | solubility in formic acid (comparison in words) (formic acid) | solubility at 25° C. (solvent Acetic Acid) [% w/w] | solubility at 25° C. (solvent Acetone) [% w/w] | solubility at 25° C. (solvent DMF) [% w/w] | solubility at 25° C. (solvent Ethyl acetate) [% w/w] | solubility at 25° C. (solvent Formic Acid) [% w/w] | solubility at 25° C. (solvent MTBE) [% w/w] | solubility at 25° C. (solvent Methanol) [% w/w] | solubility at 25° C. (solvent Methylene chloride) [% w/w] | solubility at 25° C. (solvent Propionic Acid) [% w/w] | solubility at 25° C. [1]
C[C@]12CC[C@H]3[C@@H](CCC4NC(=O)CC[C@@]43C)[C@@H]1CC[C@@H]2C(=O)O (stereo partly drawn) [Intermediate 2] | higher than Intermediate 1 | 3.69 | 0.008 | 0.40 | 0.003 | 20.32 | 0.001 | 0.16 | 0.008 | 3.10 | <LOD
C[C@]12CC[C@H]3[C@@H](CCC4NC(=O)C=C[C@@]43C)[C@@H]1CC[C@@H]2C(=O)O (stereo partly drawn) [Intermediate 1] |  | 8.1 | 0.06 | 2.4 | 0.02 | 7.7 | 0.009 | 0.6 | 0.04 | 6.6 | <LOD

Source: US20120029196A1, “PURIFICATION 4-AZA-ANDROST-1-ENE-17-OIC ACID FROM 4-AZA-ANDROSTAN-17-OIC ACID” (PHF S.A., priority 2009, published 2012)
